Measurements as given in US20090062208A1, “Methods for maintaining blood-brain barrier integrity in hypertensive subjects using a delta-PKC inhibitor” (priority 2007, published 2009).

Key:
middle cerebral arteries = conditions: DS rats; Payne and Smeda 2002; cited from earlier work
[1] = test system: Dahl salt-sensitive (DS) rats; experiment: Hypertension-induced stroke in Dahl salt-sensitive rats on high-salt diet (blood pressure, stroke incidence); type: in vivo, rat; conditions: hypertensive DS rats; for blood pressure: subcutaneous infusion by osmotic minipump, versus control TAT peptide
Protocol: (§1) As detailed in Example 1, Dahl salt-sensitive (DS) rats, which are a model for hypertension in humans, were used to evaluate the efficacy of δPKC inhibitor treatment. The animals were initially maintained on a low-salt (0.3% NaCl) diet then switched to a high-salt (8% NaCl) to induce hypertension. The rats were subcutaneously treated with either a saline solution, a control peptide (TAT, SEQ ID NO:85), or a δPKC peptide inhibitor. Blood pressure was measured bi-weekly and blood-brain barrier (BBB) disruption was assessed at the end of the treatment period. Proteomic analysis of brain samples was carried out to identify differences in the brains of control TAT peptide and δV1-1-treated animals.
Male Dahl salt-sensitive (DS) rats were maintained on a low-salt (0.3% NaCl) diet until 6 weeks of age. The animals were then switched to a high-salt (8% NaCl) diet until 15 weeks of age. The animals were monitored daily for symptoms of systemic hypertension.
(§2) The rats were subcutaneously infused (i.e., treated) with a saline solution, a control TAT peptide (YGRKKRRQRRR, SEQ ID NO:85), or the peptide inhibitor δV1-1 (SFNSYELGSL, SEQ ID NO: 1) attached via an N-terminal disulfide bond to TAT peptide (YGRKKRRQRRR-CC-SFNSYELGSL, SEQ ID NO:89), at a rate of 5.0 μL/hour, using an osmotic minipump. Treatment began at 11 weeks of age and survival rate and neurological deficits were recorded through week 15. Blood pressure was measured bi-weekly and blood-brain barrier disruption was assessed at 13 weeks by measuring Evans Blue dye extravasation. Proteomic analysis of brain samples was carried out to identify differences in the brains of control TAT peptide and δV1-1-treated animals. Blood brain barrier-related proteins were evaluated by immunoblot analysis.

[2] = test system: zonula occludens 1 (ZO-1), and occludin; experiment: Immunoblot analysis of blood brain barrier-related proteins; type: in vivo, rat; conditions: hypertensive DS rats
Protocol: as §2

transferrin and actin = experiment: Proteomic analysis of brain samples; type: in vivo, rat; conditions: brain samples taken at 13 weeks of age, continuous administration
Protocol: as §1
as §2, with “Proteomic analysis of brain samples was carried out to identify differences in the brains of control TAT peptide and δV1-1-treated animals.” left out

blood-brain barrier = experiment: Blood-brain barrier disruption by Evans Blue dye extravasation; type: in vivo, rat; conditions: hypertensive DS rats, at 13 weeks, n=6, p<0.01
Protocol: as §1
as §2, with “Proteomic analysis of brain samples was carried out to identify differences in the brains of control TAT peptide and δV1-1-treated animals.” left out

| Molecule | middle cerebral artery constriction in response to elevated blood pressure (middle cerebral arteries) | incidence of stroke (and stroke-associated symptoms) ([1]; relative to the TAT control group, n=24, p<0.01) | blood pressure ([1]; listed as δPKC inhibitor) | blood pressure ([1]; listed as δV1-1 peptide) | hypertension-induced redistribution of tight junction-related proteins ZO-1 and occludin [2] | increased levels of transferrin and actin in brain samples (transferrin and actin) | Evans Blue extravasation into the brain parenchyma (blood-brain barrier) |
| --- | --- | --- | --- | --- | --- | --- | --- |
| bisindolylmaleimide | inhibited constriction |  |  |  |  |  |  |
| YGRKKRRQRRR-CC-SFNSYELGSL [δV1-1] |  | significantly decreased | similar | identical | blocked | attenuated | reduced |
| COc1ccc2c(c[n+](C)c3c4cc5c(cc4ccc23)OCO5)c1OC [chelerythrine] | inhibited constriction |  |  |  |  |  |  |
